Test results: US20180235917A1, “COMPOSITIONS, METHODS AND KITS FOR TREATMENT OF DIABETES AND/OR […]” (NuSirt Sciences, Inc., priority 2014, published 2018)
Marks after values point to notes of the source that are not given here.

Key:
[1] = tested on: adipocytes (3T3-L1) and myotubes (C2C12); assay: Fatty acid oxidation and dose-response screening, cell type not stated; assay type: cell-based, mouse; conditions: leucine 0.5 mM, HMB 5 μM, resveratrol 200 nM, myo-inositol 100 nM; cell type not stated
Sirt1 = biological target: T1, Sirt1 (Mus musculus, UniProt Q923E4); assay: Sirt1 activity (SIRT1 Fluorimetric Drug Discovery Kit) in treated cells; assay type: cell-based; conditions: leucine 0.5 mM, HMB 5 μM, resveratrol 200 nM, alone or combined; cell type not stated
T1 construct: endogenous in cells; host or cells: differentiated 3T3-L1 adipocytes and C2C12 myotubes (lysates)
T1 sequence (Q923E4 1-737): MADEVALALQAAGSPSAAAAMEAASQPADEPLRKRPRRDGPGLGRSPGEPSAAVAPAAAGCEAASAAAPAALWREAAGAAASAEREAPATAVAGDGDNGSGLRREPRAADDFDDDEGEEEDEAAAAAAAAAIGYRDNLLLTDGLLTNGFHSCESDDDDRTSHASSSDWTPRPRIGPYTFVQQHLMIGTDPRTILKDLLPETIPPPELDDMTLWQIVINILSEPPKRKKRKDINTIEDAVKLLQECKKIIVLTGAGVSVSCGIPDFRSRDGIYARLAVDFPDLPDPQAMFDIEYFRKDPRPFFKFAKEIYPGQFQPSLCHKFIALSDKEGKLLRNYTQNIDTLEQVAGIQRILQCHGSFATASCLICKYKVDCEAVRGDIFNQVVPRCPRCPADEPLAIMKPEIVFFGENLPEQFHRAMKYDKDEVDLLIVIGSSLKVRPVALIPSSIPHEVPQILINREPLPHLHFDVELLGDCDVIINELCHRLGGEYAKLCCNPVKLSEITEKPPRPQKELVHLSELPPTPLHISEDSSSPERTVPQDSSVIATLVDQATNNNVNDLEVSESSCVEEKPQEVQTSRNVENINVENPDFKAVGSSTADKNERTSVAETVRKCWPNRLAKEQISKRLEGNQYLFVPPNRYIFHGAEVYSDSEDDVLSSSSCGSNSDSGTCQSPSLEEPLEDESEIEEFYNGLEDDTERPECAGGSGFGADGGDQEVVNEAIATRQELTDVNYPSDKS
Protocol: SIRT1 activity was measured by using the SIRT1 Fluorimetric Drug Discovery Kit (BML-AK555, ENZO Life Sciences International, Inc. PA, USA). The assay measures SIRT1 activity by the degree of deacetylation of a standardized substrate containing an acetylated lysine side chain. The substrate utilized is a peptide containing amino acids 379-382 of human p53 (Arg-His-Lys-Lys[Ac]), an established target of SIRT1 activity; SIRT1 activity is directly proportional to the degree of deacetylation of Lys-382. Samples were incubated with peptide substrate (25 μM), and NAD^+ (500 μM) in a phosphate-buffered saline solution at 37° C. on a horizontal shaker for 45 minutes. […] Following 10 minutes incubation at 37° C., fluorescence was read in a plate-reading fluorometer (Synergy HT, BioTek Instruments, Winooski, Vt.) at an excitation wavelength of 360 nm and an emission wavelength of 450 nm. […]
Sirt1 activity was measured by using the Sirt1 Fluorimetric Drug Discovery Kit (BML-AK555, ENZO Life Sciences Inc., Farmingdale, N.Y., USA). […] Sirt1 activity was assessed by the degree of deacetylation of a standardized substrate containing an acetylated lysine side chain. […] Following 10 minutes incubation at 37° C., fluorescence was read in a plate-reading fluorimeter with excitation and emission wavelengths of 360 nm and 450 nm, respectively. […] Sirt1 activity was measured in a modified assay using 5 μl of cell lysate. […]

diet-induced obese mice = assay: Diet-induced obese mice fed resveratrol, HMB, leucine: weight, adiposity, fat oxidation, insulin sensitivity (Example 1); assay type: in vivo, c57/BL6 mice; conditions: for Weight: 6 weeks on high-fat diet; for Glucose / Insulin: plasma
Protocol: Six week old male c57/BL6 mice were fed a high-fat diet with fat increased to 45% of energy (Research Diets D12451) for 6 weeks to induce obesity.
The animals were housed in polypropylene cages at a room temperature of 22±2° C. and regime of 12 h light/dark cycle. The animals had free access to water and their experimental food throughout the experiment. At the of the treatment period (6 weeks) all animals were humanely euthanized, and blood and tissues collected for further experiments.
at the end of the obesity induction period (day 0 of treatment group) and at 2 weeks and 6 weeks of treatment, oxygen consumption and substrate utilization was measured via metabolic chambers using the Comprehensive Lab Animal Monitoring Systems (CLAMS, Columbus Instruments, Columbus, Ohio) in subgroups of each treatment group. Each animal was placed in individual cages without bedding that allow automated, non-invasive data collection. Each cage is an indirect open circuit calorimeter that provides measurement of oxygen consumption, carbon dioxide production, and concurrent measurement of food intake. All mice were acclimatized to the chambers for 24 hours prior to the experiment and maintained under the regular 12:12 light:dark cycle with free access to water and food. All experiments were started in the morning and data were collected for 24 hours. Each chamber was passed with 0.61 of air/min and was sampled for 2 min at 32-minute intervals. Exhaust O2 and CO2 content from each chamber was compared with ambient O2 and CO2 content. Food consumption was measured by electronic scales.
at the end of the treatment period (6 weeks of treatment) subgroups of each treatment diet group (5 animals/group, 35 animals total) were used to measure whole body glucose and palmitate uptake via PET/CT Imaging. To visualize these compounds using microPET imaging, the glucose or palmitate was labeled with fluorine-18 (108 mins half-life) or carbon-11 (20 mins half-life), respectively. Each mouse was fasted for 4 hours, then anesthetized using 1-3% isoflurane delivered by nose cone or in a mouse-sized induction chamber purpose-built for small animal imaging protocols. While under anesthesia the mice were injected iv with <2 mCi of each tracer, then be left for a period of time (minutes to up ˜1 hour) to allow the uptake of the tracer. During the scan, mice were kept warm using a thermostatically controlled heated bed and were treated with ophthalmic ointment prior to scanning Following the live scan the mice were returned to their cage and revived. Mice were monitored constantly during this time. Following live data acquisition the mice were sacrificed by isoflurane overdose and organs harvested for further experiments.

Compound: Oc1ccc(/C=C/c2cc(O)cc(O)c2)cc1 [Resveratrol, 3,5,4′-Trihydroxy-trans-stilbene]
- increase in fatty acid oxidation [1]: no effect
- stimulation of Sirt1 activity (Sirt1): no effect
- Weight (diet-induced obese mice; High Resveratrol 225 mg/kg diet, or Low Resv 12.5 mg/kg + High HMB 10 g CaHMB/kg diet): 38.7 ± 1.2^a g
- Weight (diet-induced obese mice; low doses: resveratrol 12.5 mg/kg diet, CaHMB 2 g/kg diet, leucine 2.42% of diet): 40.8 ± 2.5^a g
- Fat oxidation (PET palmitate uptake; Muscle SUV) (diet-induced obese mice; high doses as E2): 2.29 ± 0.11^b SUV
- HOMAIR (diet-induced obese mice; high doses as E2): 0.59 ± 0.26^b
- Heat Production (diet-induced obese mice; high doses as E2): 0.552 ± 0.015^b
- Muscle Glucose Uptake (^18F-deoxyglucose SUV) (diet-induced obese mice; high doses as E2): 3.87 ± 0.32^a SUV
- Visceral Adipose Volume (diet-induced obese mice; high doses as E2): 6031 ± 323^a mm^3
- Weight gain (diet-induced obese mice; high doses as E2): 22.3 ± 2.4^a g
- Fat oxidation (PET palmitate uptake; Muscle SUV) (diet-induced obese mice; low doses as E1): 1.51 ± 0.44^a SUV
- HOMAIR (diet-induced obese mice; low doses as E1): 2.41 ± 0.66^a
- Heat Production (diet-induced obese mice; low doses as E1): 0.517 ± 0.014^a
- Muscle Glucose Uptake (^18F-deoxyglucose SUV) (diet-induced obese mice; low doses as E1): 3.63 ± 1.29^a SUV
- Visceral Adipose Volume (diet-induced obese mice; low doses as E1): 6551 ± 575^a mm^3
- Weight gain (diet-induced obese mice; low doses as E1): 20.9 ± 1.5^a g
- Glucose (diet-induced obese mice; high doses as E2): 5.14 ± 0.75^a mM
- Insulin (diet-induced obese mice; high doses as E2): 10.1 ± 2.7^a μU/mL
- Glucose (diet-induced obese mice; low doses as E1): 5.14 ± 0.85^a mM
- Insulin (diet-induced obese mice; low doses as E1): 10.4 ± 1.6^a μU/mL
